In experiment [1] the target is gingipain-1 (Porphyromonas gingivalis, UniProt P28784). Kind of experiment: biochemical. The class given is biochemical. As to conditions: for Activity +Gly-Gly: 0.1 mM compound, 50 mM Gly-Gly; for activity at 100 µM / activity at 1000 µM / activity at 10000 µM: pH 7.5, read-out: Activity -Gly-Gly; for stimulation of amidolytic activity: thiol / reducing compounds.
The test system of experiment [2] is gingipain-1. Description: biochemical. The class given is biochemical, Porphyromonas gingivalis. Conditions: Sephadex G-150 peak fractions.
The test system of experiment [3] is guinea pig skin. It is filed as in vivo. As to conditions: 10^-5 M.

Where a SMILES comes first, the peptide text is derived from it.

gingipain-1 (Porphyromonas gingivalis, UniProt P28784), sequence (P28784 228-719): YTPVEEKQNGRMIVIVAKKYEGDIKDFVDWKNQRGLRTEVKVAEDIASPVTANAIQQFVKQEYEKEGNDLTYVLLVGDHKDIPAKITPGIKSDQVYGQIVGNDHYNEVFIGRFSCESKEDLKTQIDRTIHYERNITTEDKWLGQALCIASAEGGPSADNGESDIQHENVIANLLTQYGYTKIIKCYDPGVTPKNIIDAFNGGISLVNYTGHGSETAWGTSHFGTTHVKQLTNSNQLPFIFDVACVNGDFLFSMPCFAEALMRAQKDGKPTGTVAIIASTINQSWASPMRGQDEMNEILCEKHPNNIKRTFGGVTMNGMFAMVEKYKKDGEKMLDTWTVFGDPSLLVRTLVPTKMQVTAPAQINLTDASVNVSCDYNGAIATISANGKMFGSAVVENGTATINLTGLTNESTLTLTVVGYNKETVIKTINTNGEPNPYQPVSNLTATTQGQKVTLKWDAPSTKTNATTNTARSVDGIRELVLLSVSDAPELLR

Regarding `O[C@H](CS)[C@H](O)CS` (racemic) [Dithiothreitol], in experiment [1], the “Activity +Gly-Gly” value was determined as 636%, the activity at 100 µM was 159%, the activity at 1000 µM is 432% and the activity at 10000 µM came to 685%.
Regarding `N[C@@H](CS)C(=O)O` [Cysteine], in experiment [1], the activity at 100 µM was 685% and the “stimulation of amidolytic activity” value was “most efficient”.
`N[C@@H](CCC(=O)N[C@@H](CS)C(=O)NCC(=O)O)C(=O)O` [Glutathione]: in experiment [1], the “Activity +Gly-Gly” value was 853%, the activity at 100 µM was 208%, the activity at 1000 µM was 593% and the activity at 10000 µM turned out to be 770%.
`NCC(=O)NCC(=O)O` [Gly-Gly, glycyl-glycine] (H-Gly-Gly-OH): the “enhancement of Bz-L-Arg-pNA hydrolytic activity” value in experiment [2] is “enhanced many-fold”.
For `OCCS` [Mercaptoethanol], in experiment [1], the “Activity +Gly-Gly” value came to 627%, the activity at 100 µM was determined as 165%, the activity at 1000 µM stood at 456% and the activity at 10000 µM turned out to be 685%.
Consider `NCCS` [cysteamine], for which the “stimulation of amidolytic activity” value in experiment [1] was “most efficient”.
As for `NCC(N)=O` [glycine amide], the “enhancement of Bz-L-Arg-pNA hydrolytic activity” value in experiment [2] is on record as “enhanced many-fold”.
As to `NCC(=O)O` [glycine], the “effect of glycine and glycine analogues on kcat/Km” value in experiment [1] (preliminary kinetic data, kcat and Km both raised equally) is recorded as “kcat /Km ratio does not change”.

B1: soybean trypsin inhibitor: soybean trypsin inhibitor (SBTI) (protein, UniProt P01070 25-205, looked up)
Trypsin inhibitor A: DFVLDNEGNPLENGGTYYILSDITAFGGIRAAPTGNERCPLTVVQSRNELDKGIGTIISSPYRIRFIAEGHPLSLKFDSFAVIMLCVGIPTEWSVVEDLPEGPAVKIGENKDAMDGWFRLERVSDDEFNNYKLVFCPQQAEDDKCGDIGISIDHDDGTRRLVVSKNKPLVVQFQKLDKESL
For B1, in experiment [3], the “inhibition of vascular permeability enhancement” value was “inhibited”.

Values taken from US6274718A (priority 2000, dated 2001).
